Data from article PMC5106240 (Drug Design, Development and Therapy, 2016).

Legend:
Type in all cases: in vivo, Wistar rats
[1] = tested on: STR-induced convulsions; assay: STR-induced seizure model; conditions: rats, 10, 20, 30 minutes observation
[2] = tested on: PTZ-induced convulsions; assay: PTZ-induced seizure model; conditions: rats
[3] = tested on: MES-induced convulsions; assay: MES-induced seizure model; conditions: rats, 10 mg/kg IP, vs saline-treated group
[4] = 10 mg/kg IP, 30 minutes before PTZ 60 mg/kg IP, 10, 20, 30 minutes observation

| Compound | Protective effect on STR-induced convulsions (convulsion score) ([1]; 300 mg/kg IP) | Protective effect on PTZ-induced convulsions (convulsion score) ([2]; 100 mg/kg IP, 10, 20, 30 minutes observation) | Protective effect on MES-induced convulsions (duration of THLE) [3] | Protective effect on PTZ-induced convulsions (convulsion score) [2, 4] | Protective effect on PTZ-induced convulsions (convulsion score) ([2]; 10 and 15 mg/kg IP, 10, 20, 30 minutes) | Protective effect on STR-induced convulsions (convulsion score) ([1]; 10 mg/kg IP, 30 minutes before STR 3.5 mg/kg IP) |
| --- | --- | --- | --- | --- | --- | --- |
| CCCC(CCC)C(=O)O [VPA, valproic acid] | significant protection | significant protection |  |  |  |  |
| O=C1NC(=O)C(c2ccccc2)(c2ccc(OCCCN3CCCCC3)cc2)N1 (centres unmarked) [Compound 6, 5-Phenyl-5-(4-(3-(piperidin-1-yl)propoxy)phenyl) imidazolidine-2,4-dione] |  |  | failed to provide significant protection | full protection | significant and full protective effect |  |
| Clc1ccc(CCCOCCCN2CCCCC2)cc1 [PIT, pitolisant] |  |  | moderately protected | failed to provide protection |  | failed to provide protection |
| C[C@@H](N)Cc1cnc[nH]1 [RAMH, R-(α)-methyl-histamine] |  |  | did not affect MES-induced seizures | did not affect convulsion score |  |  |
| O=C1NC(=O)C(c2ccccc2)(c2ccccc2)N1 [PHT, Phenytoin] |  |  | fully |  |  |  |
